{"source": "paper PMC4961418", "about": "“A Selective Irreversible Inhibitor of Furin Does Not Prevent Pseudomonas Aeruginosa Exotoxin A-Induced Airway Epithelial Cytotoxicity” (PLoS ONE, 2016)", "key": {"prostasin": {"target": "T1, prostasin (Homo sapiens, UniProt Q16651)", "T1 construct": "purchased Sino Biological", "T1 sequence (Q16651 33-343)": "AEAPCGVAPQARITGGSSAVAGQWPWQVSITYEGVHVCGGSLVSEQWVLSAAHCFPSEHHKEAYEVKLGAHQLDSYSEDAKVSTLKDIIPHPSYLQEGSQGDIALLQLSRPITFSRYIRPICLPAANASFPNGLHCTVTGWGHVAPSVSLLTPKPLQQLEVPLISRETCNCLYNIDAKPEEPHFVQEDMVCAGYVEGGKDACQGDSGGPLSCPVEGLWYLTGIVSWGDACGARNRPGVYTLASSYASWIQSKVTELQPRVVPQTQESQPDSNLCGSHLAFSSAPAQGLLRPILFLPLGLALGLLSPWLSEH", "test": "Fluorogenic protease activity assay, prostasin", "type": "biochemical", "details": "10 μM inhibitor, Boc-Gln-Ala-Arg-NH2Mec 50 μM, N = 3", "excerpt": "(§1) Recombinant human enzymes were sourced as follows: furin and matriptase (R&D Systems); prostasin (Sino Biological); trypsin and chymotrypsin (Sigma-Aldrich); factor Xa and neutrophil elastase (Merck Millipore) and proteinase-3 and cathepsin G (Elastin Products, Missouri). Fluorogenic substrates were sourced as follows: p-Glu-Arg-Thr-Lys-Arg-NH2Mec and Boc-Gln-Ala-Arg-NH2Mec (R&D Systems); Boc-Ile-Glu-Gly-Arg-NH2Mec (Bachem); Z-Gly-Gly-Arg-NH2Mec, MeOSuc-Ala-Ala-Pro-Val-NH2Mec and Suc-Ala-Ala-Pro-Phe-NH2Mec (Sigma-Aldrich). All chemicals and reagents for the synthesis of QUB-F1 were supplied by Sigma-Aldrich unless otherwise indicated. Fmoc-Lys(Boc)-SASRIN resin was sourced from Bachem. Fmoc-protected amino acids and HCTU were supplied by Merck Millipore.\n(§2) Recombinant protease activities were assessed using the cognate fluorogenic substrates (final concentration 50 μM) as follows: trypsin (Z-Gly-Gly-Arg-NH2Mec), prostasin and matriptase (Boc-Gln-Ala-Arg-NH2Mec), factor Xa (Boc-Ile-Glu-Gly-Arg-NH2Mec), neutrophil elastase and proteinase 3 (MeO-Suc-Ala-Ala-Pro-Val-NH2Mec), chymotrypsin and cathepsin G (Suc-Ala-Ala-Pro-Phe-NH2Mec). The rate of substrate hydrolysis in the presence or absence of furin inhibitors was assessed by continuous recording at λex 360 nm, λem 480 nm, over a period of 60 minutes using a FLUOstar Optima microplate reader (BMG Labtech). […]"}, "CuFi-1 epithelial cells": {"system": "CuFi-1 epithelial cells", "test": "PEA-induced epithelial cell toxicity (LDH cytotoxicity assay)", "type": "cell-based, human", "details": "2 μg/ml PEA, 24 h, CF airway epithelial cells", "description": "The CuFi-1 cell line was derived from human airway epithelium of a CF patient (F508del/F508del) transformed with a reverse transcriptase component of telomerase, hTERT and human papillomavirus type 16 E6 and E7 genes. Cells were grown as submerged cultures using bronchial epithelial growth medium (BEBM including a supplement pack) containing: epidermal growth factor, hydrocortisone, bovine pituitary extract, transferrin, bovine insulin, triiodothyronine, epinephrine, retinoic acid, penicillin-streptomycin (0.025 μg/ml), gentamycin ([…]) and amphotericin (25 μg/ml).\nCytotoxicity was determined using the LDH-Cytotoxicity Colorimetric Assay Kit II (Bio Vision) in accordance with the instructions provided by the manufacturer. Addition of the supplied cell lysis solution to control wells was used to determine 100% cytotoxicity in each set of experiments.\nFig 4 Effect of furin inhibitors on PEA-induced epithelial cell toxicity. (A) Cell toxicity (%) induced by 2 μg/ml PEA (24 h) was measured in the presence or absence of furin I or QUB-F1. Data represent mean ± s.e.m. *P<0.05. (B) Airway epithelial cell surface furin-like activity was assayed upon application of the furin fluorogenic substrate (pERTKR) to cell cultures in the presence or absence of 10 μM furin I or QUB-F1."}, "recombinant human furin": {"target": "T2, recombinant human furin (Homo sapiens, UniProt P09958)", "T2 construct": "purchased R&D Systems", "T2 sequence (P09958 108-794)": "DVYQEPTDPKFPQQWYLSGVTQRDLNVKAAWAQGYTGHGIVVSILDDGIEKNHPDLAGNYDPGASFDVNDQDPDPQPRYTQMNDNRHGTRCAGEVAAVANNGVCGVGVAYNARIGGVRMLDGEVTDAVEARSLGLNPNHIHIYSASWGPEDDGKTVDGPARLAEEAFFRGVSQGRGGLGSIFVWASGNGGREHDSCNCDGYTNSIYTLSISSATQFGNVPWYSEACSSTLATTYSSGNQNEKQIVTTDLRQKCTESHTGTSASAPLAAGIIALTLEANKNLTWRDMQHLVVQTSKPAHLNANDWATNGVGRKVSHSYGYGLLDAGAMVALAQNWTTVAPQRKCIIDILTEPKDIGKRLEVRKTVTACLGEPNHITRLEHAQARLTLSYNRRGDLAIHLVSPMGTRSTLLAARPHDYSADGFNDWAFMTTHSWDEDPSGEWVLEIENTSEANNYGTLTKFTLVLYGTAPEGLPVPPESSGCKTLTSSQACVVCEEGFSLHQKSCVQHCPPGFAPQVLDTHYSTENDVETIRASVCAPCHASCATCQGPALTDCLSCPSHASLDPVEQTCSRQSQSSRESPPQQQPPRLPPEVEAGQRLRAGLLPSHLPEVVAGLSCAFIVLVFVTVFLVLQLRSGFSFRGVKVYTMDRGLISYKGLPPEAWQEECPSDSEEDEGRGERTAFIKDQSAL", "test": "Second order rate constant determination, steady-state fluorimetric assay (pERTKR-NH2Mec)", "type": "biochemical", "details": "irreversible inhibitor kinetics, 50 μM pERTKR-NH2Mec, 37°C, pH 7.4", "description": "A range of final inhibitor concentrations (at least 5) were prepared from a 10 mM stock solution of QUB-F1 (in N,N-dimethyformamide (DMF)). The fluorogenic substrate, p-Glu-Arg-Thr-Lys-Arg-NH2Mec (pERTKR-AMC), was diluted in assay buffer (25 mM Tris/HCl containing 1 mM CaCl2, pH 7.4) and used at a fixed concentration of 50 μM throughout. All inhibition assays were performed in microtitre plates maintained at 37°C in a final volume of 100 μl. The reaction was initiated by the addition of recombinant human furin (0.01 μg/well) and the rate of substrate hydrolysis continuously recorded at λex 360 nm, λem 480 nm, over a period of 90 minutes using a FLUOstar Optima microplate reader (BMG Labtech). The resultant inhibition progress curve for QUB-F1 was then analysed according to the kinetic models developed by Tian and Tsou and Walker and Elmore, for irreversible inhibitors, using GRAFIT (Erithacus Software). The inhibitor constant Ki, the apparent first order rate constant k3, and over all second-order rate constant (k3/Ki) for QUB-F1 against furin was determined, from a plot of 1/A against [I] (where A is the apparent second-order rate constant for irreversible inhibition determined for each inhibitor concentration [I]). The determination of Km and Vmax were also determined separately by fitting initial rates of hydrolysis to substrate concentration, according to Michaelis-Menten kinetics, also using GRAFIT (Erithacus Software). The inhibitor constant Ki, the apparent first order rate constant k3, and the overall second-order rate constant (k3/Ki) for QUB-F1 against furin were determined, from a plot of 1/A against [I] (where A is the apparent second-order rate constant for irreversible inhibition determined for each inhibitor concentration [I]).\nThe ability of QUB-F1 to inhibit recombinant human furin was assessed using a steady-state fluorimetric assay employing the cognate fluorescent substrate (pERTKR-NH2Mec). The k3, Ki and k3/Ki values where determined as follows: Ki 9.33 (± 0.32) x 10^−7 M, k3 0.016 (± 0.004) min^-1 and k3/Ki […] M^-1 min^-1. […]"}, "trypsin": {"system": "trypsin", "test": "Fluorogenic protease activity assay, trypsin", "type": "biochemical, human", "details": "10 μM inhibitor, Z-Gly-Gly-Arg-NH2Mec 50 μM, N = 3", "excerpt": "as §1, §2"}}, "note": "Side chains are listed from the residue outwards. Peptide text beside a SMILES is read from it. * marks the point of attachment. Biotin = O=C1N[C@H]2[C@H](CS[C@H]2CCCCC(=O)*)N1; X1 = N=C(N)NCCCC(N*)P(=O)(Oc1ccccc1)Oc1ccccc1; Palmitoyl = CCCCCCCCCCCCCCCC(=O)*; Ahx = NCCCCCC(=O)O", "data": [{"smiles": "CCCCCCCCCCCCCCCC(=O)N[C@@H](CCCCNC(=O)CCCCCNC(=O)CCCC[C@@H]1SC[C@@H]2NC(=O)N[C@@H]21)C(=O)N[C@@H](CCCNC(=N)N)C(=O)N[C@H](C(=O)N[C@@H](CCCCN)C(=O)NC(CCCNC(=N)N)P(=O)(Oc1ccccc1)Oc1ccccc1)C(C)C", "note": "(stereo partly drawn) [QUB-F1, N^α-Pal-N^ω-(Biotinyl-Ahx)-Lys-RVKR^P(OPh)2] (Palmitoyl-K([Ahx-Biotin])RVK-X1)", "values": [{"measurement": "inhibition of prostasin", "setting": "prostasin", "result": "did not"}, {"measurement": "effect on PEA-induced epithelial cell toxicity", "setting": "CuFi-1 epithelial cells", "result": "offered no protection"}, {"measurement": "Ki", "setting": "recombinant human furin", "result": 0.933, "unit": "µM"}, {"measurement": "k3 (apparent first order rate constant)", "setting": "recombinant human furin", "result": "0.016 (± 0.004) min^-1"}, {"measurement": "kinact/KI", "setting": "recombinant human furin; read-out: k3/Ki (overall second-order rate constant) (converted)", "result": 342, "unit": "M⁻¹ s⁻¹"}, {"measurement": "inhibition of trypsin", "setting": "trypsin", "result": "did not"}]}]}
